Columns and labels:
[1] = tested on: TSC-associated seizures; assay: Double-blind, randomized, placebo-controlled trial: TSC-associated seizure frequency; type: in vivo, human; details: for Mean number of TSC-associated seizures per 28 days, treatment period: 16-week treatment period, add-on to AEDs; for Mean number of TSC-associated seizures per 28 days, baseline period: 4-week baseline before treatment; for Reduction in TSC-associated seizures over the maintenance period: 12-week maintenance period, placebo 30%; for Patients who experienced a ≥50% reduction in seizures, number (%): placebo 17 (22.4%); for TSC-associated seizures, estimated ratio CBD/Placebo / TSC-associated seizures, percentage reduction CBD/Placebo: treatment period
Experimental: (§1) The blinded phase of the study was a randomized, double-blind, parallel-group, 16-week comparison of two doses of CBD versus placebo. Patients completed a 1-week screening period and a 4-week baseline period before they were randomized to receive 25 mg/kg/day CBD, 50 mg/kg/day CBD or equivalent volumes of placebo. Randomization was stratified by age according to the following ranges: 1-6, 7-11, 12-17 years and 18+ years.
(§2) Patients began a 4-week dose escalation period, titrating up to their assigned dose, before continuing on a stable dose of blinded investigational medicinal product (IMP) for 12 weeks.
(§3) Patients were required to perform daily interactive voice response system (IVRS) telephone calls to record seizure information. They were also required to complete a paper diary daily with information about IMP and concomitant AED administration.
The primary endpoint was the change in number of TSC-associated seizures during the treatment period (maintenance and titration) compared to baseline in patients taking CBD compared with placebo.
TSC-associated seizures included: focal motor seizures without impairment of consciousness or awareness; focal seizures with impairment of consciousness or awareness; focal seizures evolving to bilateral generalized convulsive seizures and generalized seizures (tonic-clonic, tonic, clonic or atonic) that are countable.
Secondary endpoints included the number of patients considered treatment responders which was defined as those with a >50% reduction in TSC-associated seizure frequency;
Antiepileptic efficacy measures were also determined and these included: number of patients considered treatment responders defined as those with a ≥25%, ≥50%, ≥75% or 100% reduction in TSC-associated seizure frequency; number of patients experiencing a >25% worsening, −25 to +25% no change, 25-50% improvement, 50-75% improvement or >75% improvement in TSC-associated seizure frequency; change in number of TSC-associated seizure-free days; and change in number of ‘other’ seizures (absence, myoclonic, focal sensory and infantile/epileptic spasms).

[2] = tested on: total seizures; assay: Double-blind, randomized, placebo-controlled trial: total seizure count; type: in vivo, human; details: for Total seizure count, mean number of seizures per 28 days, treatment period: 16-week treatment period; for Total seizure count, mean number of seizures per 28 days, baseline period: baseline before treatment; for Reduction of seizures over the maintenance period (paragraph after the total seizure tables): 12-week maintenance period, placebo 30.1%
Experimental: as §1, §2, §3
(§4) change in Caregiver Global Impression of Change (CGIC) or Subject Global Impression of Change (SGIC) score; and change in total seizures.
In addition to the TSC-associated seizures (focal motor seizures without impairment of consciousness or awareness; focal seizures with impairment of consciousness or awareness; focal seizures evolving to bilateral generalized convulsive seizures and generalized seizures (tonic-clonic, tonic, clonic or atonic) that are countable) the total seizure count was recorded in the trial.

[3] = Double-blind, randomized, placebo-controlled trial: Subject/Caregiver Global Impression of Change; type: in vivo, human; details: for Subject/caregiver global impression of change: Much improved, number (%) / Subject/caregiver global impression of change: Much worse, number (%) / Subject/caregiver global impression of change: No change, number (%) / Subject/caregiver global impression of change: Slightly improved, number (%) / Subject/caregiver global impression of change: Slightly worse, number (%) / Subject/caregiver global impression of change: Very much worse, number (%) / Subject/caregiver global impression of change: Very much improved, number (%): data from last visit
Experimental: as §1, §4

[4] = Double-blind, randomized, placebo-controlled trial: safety and tolerability (adverse events, ALT); type: in vivo, human; details: for Patients with alanine aminotransferase (ALT) elevations >3 upper level of normal (ULN): none on placebo
Experimental: as §1
Safety and tolerability measures that were recorded included: adverse events; clinical laboratory parameters; 12-lead electrocardiogram (ECG); physical examination parameters (including height and weight); vital signs; Columbia-Suicide Severity Rating Scale (C-SSRS; 19+ years) or C-SSRS Children's (6-18 years) score, where applicable; number of inpatient hospitalizations due to epilepsy; abuse liability and effects on menstruation cycles (in females).

[5] = tested on: seizures; details: 200 mg/day pure CBD; four adult patients; cited from earlier work
[6] = tested on: generalized epilepsy; details: eight adult patients with generalized epilepsy; cited from earlier work
[7] = tested on: seizures; details: mice; after pro-convulsant drugs or an electric current; cited from earlier work
[8] = tested on: seizures; details: 200 mg/day pure CBD; twelve institutionalized adult patients; open label; cited from earlier work
[9] = CBD 25 mg/kg/day group (n = 75)
[10] = CBD 25 mg/kg/day, p-value 0.0009
[11] = CBD 50 mg/kg/day group (n = 73)
[12] = CBD 50 mg/kg/day, p-value 0.0018
[13] = CBD 50 mg/kg/day, treatment period, p-value 0.0018

SMILES: C=C(C)[C@@H]1CCC(C)=C[C@H]1c1c(O)cc(CCCCC)cc1O [CBD, cannabidiol]
- Patients with complete seizure freedom (100% reduction in TSC-associated seizure frequency) ([1]; CBD 25 mg/kg/day): 4 patients
- TSC-associated seizures, estimated ratio Treatment period/Baseline period ([1]; CBD 25 mg/kg/day (n = 75)): 0.514
- TSC-associated seizures, percentage reduction Treatment period/Baseline period ([1]; CBD 25 mg/kg/day (n = 75)): 48.6%
- Mean number of TSC-associated seizures per 28 days, treatment period ([1]; CBD 25 mg/kg/day (n = 75)): 26.5 per 28 days
- Mean number of TSC-associated seizures per 28 days, baseline period [1, 9]: 51.6 per 28 days
- Reduction in TSC-associated seizures over the maintenance period ([1]; CBD 25 mg/kg/day, p=0.0004): 55.8%
- Patients who experienced a ≥50% reduction in seizures, number (%) ([1]; CBD 25 mg/kg/day, p=0.0692): 27 (36.0%) patients
- TSC-associated seizures, estimated ratio CBD/Placebo [1, 10]: 0.699
- TSC-associated seizures, percentage reduction CBD/Placebo [1, 10]: 30.1%
- Patients with complete seizure freedom (100% reduction in TSC-associated seizure frequency) ([1]; CBD 50 mg/kg/day): 2 patients
- TSC-associated seizures, estimated ratio Treatment period/Baseline period ([1]; CBD 50 mg/kg/day (n = 73)): 0.525
- TSC-associated seizures, percentage reduction Treatment period/Baseline period ([1]; CBD 50 mg/kg/day (n = 73)): 47.5%
- Mean number of TSC-associated seizures per 28 days, treatment period ([1]; CBD 50 mg/kg/day (n = 73)): 34.9 per 28 days
- Mean number of TSC-associated seizures per 28 days, baseline period [1, 11]: 66.3 per 28 days
- Reduction in TSC-associated seizures over the maintenance period ([1]; CBD 50 mg/kg/day, p=0.0005): 55.8%
- Patients who experienced a ≥50% reduction in seizures, number (%) ([1]; CBD 50 mg/kg/day, p=0.0245): 29 (39.2%) patients
- TSC-associated seizures, estimated ratio CBD/Placebo [1, 12]: 0.715
- TSC-associated seizures, percentage reduction CBD/Placebo [1, 12]: 28.5%
- Number of TSC-associated seizures (conclusion) ([1]; both 25 and 50 mg/kg/day): significantly reduce
- Total seizures, estimated ratio Treatment period/Baseline period ([2]; CBD 25 mg/kg/day (n = 75)): 0.519
- Total seizures, percentage reduction Treatment period/Baseline period ([2]; CBD 25 mg/kg/day (n = 75)): 48.1%
- Total seizure count, mean number of seizures per 28 days, treatment period ([2]; CBD 25 mg/kg/day (n = 75)): 28.0 per 28 days
- Total seizure count, mean number of seizures per 28 days, baseline period [2, 9]: 53.9 per 28 days
- Reduction of seizures over the maintenance period (paragraph after the total seizure tables) ([2]; CBD 25 mg/kg/day, p=0.0007): 55%
- Total seizures, estimated ratio CBD/Placebo ([2]; CBD 25 mg/kg/day, treatment period, p-value 0.0013): 0.709
- Total seizures, estimated ratio Treatment period/Baseline period ([2]; CBD 50 mg/kg/day (n = 73)): 0.524
- Total seizures, percentage reduction Treatment period/Baseline period ([2]; CBD 50 mg/kg/day (n = 73)): 47.6%
- Total seizure count, mean number of seizures per 28 days, treatment period ([2]; CBD 50 mg/kg/day (n = 73)): 39.6 per 28 days
- Total seizure count, mean number of seizures per 28 days, baseline period [2, 11]: 75.7 per 28 days
- Reduction of seizures over the maintenance period (paragraph after the total seizure tables) ([2]; CBD 50 mg/kg/day, p=0.0005): 55.9%
- Total seizures, estimated ratio CBD/Placebo [2, 13]: 0.716
- Total seizures, percentage reduction CBD/Placebo [2, 13]: 28.4%
- Total number of seizures (conclusion) ([2]; both 25 and 50 mg/kg/day): significantly reduce
- Subject/caregiver's global impression of change (conclusion) ([3]; 25 mg/kg/day group): significant efficacy
- Subject/caregiver global impression of change: Much improved, number (%) ([3]; CBD 25 mg/kg/day): 12 (18.2%)
- Subject/caregiver global impression of change: Much worse, number (%) ([3]; CBD 25 mg/kg/day): 2 (3.0%)
- Subject/caregiver global impression of change: No change, number (%) ([3]; CBD 25 mg/kg/day): 14 (21.2%)
- Subject/caregiver global impression of change: Slightly improved, number (%) ([3]; CBD 25 mg/kg/day): 23 (34.8%)
- Subject/caregiver global impression of change: Slightly worse, number (%) ([3]; CBD 25 mg/kg/day): 4 (6.1%)
- Subject/caregiver global impression of change: Very much worse, number (%) ([3]; CBD 25 mg/kg/day): 1 (1.5%)
- Subject/caregiver global impression of change: Very much improved, number (%) ([3]; CBD 25 mg/kg/day, overall p-value 0.0074): 10 (15.2%)
- Subject/caregiver global impression of change: Much improved, number (%) ([3]; CBD 50 mg/kg/day): 12 (18.2%)
- Subject/caregiver global impression of change: Much worse, number (%) ([3]; CBD 50 mg/kg/day): 3 (4.5%)
- Subject/caregiver global impression of change: No change, number (%) ([3]; CBD 50 mg/kg/day): 14 (21.2%)
- Subject/caregiver global impression of change: Slightly improved, number (%) ([3]; CBD 50 mg/kg/day): 21 (31.8%)
- Subject/caregiver global impression of change: Slightly worse, number (%) ([3]; CBD 50 mg/kg/day): 6 (9.1%)
- Subject/caregiver global impression of change: Very much worse, number (%) ([3]; CBD 50 mg/kg/day): 1 (1.5%)
- Subject/caregiver global impression of change: Very much improved, number (%) ([3]; CBD 50 mg/kg/day, overall p-value 0.0580): 9 (13.6%)
- Incidence of diarrhoea, vomiting, transaminase elevations, somnolence, and rash ([4]; 50 mg/kg/day group compared to 25 mg/kg/day group): higher in the 50 mg/kg/day group
- Treatment emergent adverse event, maximal severity Mild, number (%) ([4]; CBD 25 mg/kg/day (n = 75)): 37 (49.3%)
- Treatment emergent adverse event, maximal severity Moderate, number (%) ([4]; CBD 25 mg/kg/day (n = 75)): 26 (34.7%)
- Treatment emergent adverse event, maximal severity Severe, number (%) ([4]; CBD 25 mg/kg/day (n = 75)): 7 (9.3%)
- Patients with alanine aminotransferase (ALT) elevations >3 upper level of normal (ULN) ([4]; CBD 25 mg/kg/day): 12%
- Treatment emergent adverse event, maximal severity Mild, number (%) ([4]; CBD 50 mg/kg/day (n = 73)): 29 (39.7%)
- Treatment emergent adverse event, maximal severity Moderate, number (%) ([4]; CBD 50 mg/kg/day (n = 73)): 35 (47.9%)
- Treatment emergent adverse event, maximal severity Severe, number (%) ([4]; CBD 50 mg/kg/day (n = 73)): 9 (12.3%)
- Patients with alanine aminotransferase (ALT) elevations >3 upper level of normal (ULN) ([4]; CBD 50 mg/kg/day): 25%
- Rate of ALT elevations ([4]; patients on concomitant valproic acid and on the higher dose of CBD): higher rate of ALT elevations
- Most common adverse reactions (≥10% and greater than placebo) ([4]; patients receiving CBD, 25 or 50 mg/kg/day): somnolence; decreased appetite; diarrhoea; vomiting; transaminase elevations; pyrexia; and infections
- Seizure freedom [5]: two of the four patients became seizure free
- Reduction of seizures [6]: marked reduction of seizures in 4 of the patients
- Prevention of seizures [7]: able to prevent seizures
- Control of seizures [8]: ineffective
